From US12304890B2, “R-type pyridyloxycarboxylic acid, salt and ester derivative thereof, and preparation method therefor, and herbicidal composition and application thereof” (Qingdao Kingagroot Chemical Compound Co., Ltd., priority 2018, dated 2025)

Legend:
Format in all cases: in vivo
[1] = system: Semen Euphorbiae Lathyridis; experiment: Post-emergence test experiment, Semen Euphorbiae Lathyridis; details: 3 weeks
Method: The above described growth inhibition rate is fresh weight inhibition rate.
Post-emergence test experiment: Monocotyledonous and dicotyledonous weed seeds and main crop seeds (i. e. wheat, corn, rice, soybean, cotton, oilseed, millet and sorghum.) were put into a plastic pot loaded with soil. Then covered with 0.5-2 cm soil, the seeds were allowed to grow in good greenhouse environment. The test plants were treated at 2-3 leaf stage 2 weeks after sowing. The test compounds of the invention were dissolved with acetone respectively, then added with tween-80, and using 1.5 liters per hectare of an emulsible concentrate of methyl oleate as a synergist, and diluted by certain amount of water to certain concentration. The solution was sprayed to the plants with a sprayer. Then the plants were cultured for 3 weeks in the greenhouse, and the experiment result of weed controlling effect was listed in tables 4-5.

Digitaria sanguinalis = experiment: Post-emergence test experiment, Digitaria sanguinalis; details: for Activity level (growth inhibition rate), Digitaria sanguinalis: 1000 g a.i./ha, 3 weeks in greenhouse, fresh weight inhibition
In short: (§1)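 Read-out is fresh weight inhibition rate, taken 3 weeks after spraying. Treatment was applied to plants at the 2-3 leaf stage, grown from seed under 0.5-2 cm soil in greenhouse pots. Spray solution contained acetone, tween-80 and methyl oleate emulsible concentrate at 1.5 liters per hectare.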

Echinochloa crusgalli = experiment: Post-emergence test experiment, Echinochloa crusgalli; details: for Activity level (growth inhibition rate), Echinochloa crusgalli: 1000 g a.i./ha, 3 weeks in greenhouse, fresh weight inhibition
In short: as §1

[2] = system: Monocotyledonous and dicotyledonous weed seeds and main crop seeds; experiment: Post-emergence test experiment, other weeds and crops (Table 4, 1000 g a.i./ha); details: 3 weeks in greenhouse, fresh weight inhibition
In short: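 Weed and crop seeds (wheat, corn, rice, soybean, cotton, oilseed, millet, sorghum) sown in soil pots in a greenhouse and sprayed at 2-3 leaf stage, 2 weeks after sowing. Compound in acetone/tween-80 with methyl oleate concentrate (1.5 L/ha) as synergist. Effect recorded as fresh-weight growth inhibition rate.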

[3] = 504 h, 200 g a.i./ha, weed resistant to cyhalofop-butyl, read-out: Semen Euphorbiae Lathyridis, activity level (growth inhibition rate)
[4] = Digitaria sanguinalis, 504 h, 200 g a.i./ha, 3 weeks, weed resistant to cyhalofop-butyl, read-out: Digitaria sanguinalis, activity level (growth inhibition rate)
[5] = Echinochloa crus-galli, 504 h, 200 g a.i./ha, 3 weeks, weed resistant to ALS inhibitor and ACCe herbicides, read-out: Echinochloa crusgalli, activity level (growth inhibition rate)

SMILES	inhibition at 200 g/ha [1, 3]	inhibition at 200 g/ha (Digitaria sanguinalis; [4])	inhibition at 200 g/ha (Echinochloa crusgalli; [5])	Activity level (growth inhibition rate), Abutilon theophrasti Medic. [2]	Activity level (growth inhibition rate), Galium aparine [2]	Activity level (growth inhibition rate), Monochoria Vaginalis [2]	Activity level (growth inhibition rate), Digitaria sanguinalis (Digitaria sanguinalis)	Activity level (growth inhibition rate), Echinochloa crusgalli (Echinochloa crusgalli)	further results
COC(=O)C(C)Oc1ncc(Cl)c(N)c1Cl (stereo not shown) [reference compound]	20 to 40%	40 to 60%	20 to 40%						
CC(C)=NOC(=O)C(C)Oc1nc(F)c(Cl)c(N)c1Cl (stereo not shown) [Compound 2-292]				5 (Level 5: the growth inhibition rate is greater than 85%)	5 (Level 5: the growth inhibition rate is greater than 85%)	5 (Level 5: the growth inhibition rate is greater than 85%)	5 (Level 5: the growth inhibition rate is greater than 85%)	5 (Level 5: the growth inhibition rate is greater than 85%)	Semen Euphorbiae Lathyridis, activity level (growth inhibition rate) ([1]; 200 g a.i./ha, weed resistant to cyhalofop-butyl): 5 (Level 5: the growth inhibition rate is greater than 85%); Digitaria sanguinalis, activity level (growth inhibition rate) (Digitaria sanguinalis; 200 g a.i./ha, 3 weeks, weed resistant to cyhalofop-butyl): 5 (Level 5: the growth inhibition rate is greater than 85%); Echinochloa crusgalli, activity level (growth inhibition rate) (Echinochloa crusgalli; 200 g a.i./ha, 3 weeks, weed resistant to ALS inhibitor and ACCe herbicides): 5 (Level 5: the growth inhibition rate is greater than 85%)
CC(Oc1nc(Cl)c(Cl)c(N)c1Cl)C(=O)O (stereo not shown) [reference compound]	40 to 60%	40 to 60%	20 to 40%						
C[C@H](Oc1nc(F)c(Cl)c(N)c1Cl)C(=O)O [reference compound]	5 to 20%	5 to 20%	5 to 20%						
COC(=O)[C@H](C)Oc1ncc(Cl)c(N)c1Cl [reference compound]	< 5%	< 5%	< 5%						
COc1cc(OC)nc(Oc2cccc(Oc3nc(OC)cc(OC)n3)c2C(=O)O)n1 [bispyribac-sodium, reference compound]									inhibition at 100 g/ha ([1]; 504 h, 100 g a.i./ha, resistant weed, read-out: Semen Euphorbiae Lathyridis, activity level (growth inhibition rate)): < 5%; inhibition at 100 g/ha (Digitaria sanguinalis; Digitaria sanguinalis, 504 h, 100 g a.i./ha, 3 weeks, resistant weed, read-out: Digitaria sanguinalis, activity level (growth inhibition rate)): 5 to 20%; inhibition at 100 g/ha (Echinochloa crusgalli; Echinochloa crus-galli, 504 h, 100 g a.i./ha, 3 weeks, resistant weed, read-out: Echinochloa crusgalli, activity level (growth inhibition rate)): 5 to 20%
CCOC(=O)[C@H](C)Oc1nc(F)c(Cl)c(N)c1Cl [reference compound]	5 to 20%	5 to 20%	5 to 20%						
C[C@H](Oc1nc(Cl)c(Cl)c(N)c1Cl)C(=O)O [reference compound]	5 to 20%	5 to 20%	5 to 20%						
Cc1cn(C)nc1SC(=O)[C@@H](C)Oc1nc(F)c(Cl)c(N)c1Cl [Compound 2-365]				5 (Level 5: the growth inhibition rate is greater than 85%)	5 (Level 5: the growth inhibition rate is greater than 85%)	5 (Level 5: the growth inhibition rate is greater than 85%)	5 (Level 5: the growth inhibition rate is greater than 85%)	5 (Level 5: the growth inhibition rate is greater than 85%)	
Cc1cccc(COC(=O)C(C)Oc2nc(F)c(Cl)c(N)c2Cl)c1 (stereo not shown) [Compound 2-304]				5 (Level 5: the growth inhibition rate is greater than 85%)	5 (Level 5: the growth inhibition rate is greater than 85%)	5 (Level 5: the growth inhibition rate is greater than 85%)	5 (Level 5: the growth inhibition rate is greater than 85%)	5 (Level 5: the growth inhibition rate is greater than 85%)	
CC(Oc1nc(F)c(Cl)c(N)c1Cl)C(=O)OC[N+](=O)[O-] (stereo not shown) [Compound 2-268]				5 (Level 5: the growth inhibition rate is greater than 85%)	5 (Level 5: the growth inhibition rate is greater than 85%)	5 (Level 5: the growth inhibition rate is greater than 85%)	5 (Level 5: the growth inhibition rate is greater than 85%)	5 (Level 5: the growth inhibition rate is greater than 85%)	
CC(C)CCCOC(=O)[C@@H](C)Oc1nc(F)c(Cl)c(N)c1Cl [Compound 2-107]				5 (Level 5: the growth inhibition rate is greater than 85%)	5 (Level 5: the growth inhibition rate is greater than 85%)	5 (Level 5: the growth inhibition rate is greater than 85%)	5 (Level 5: the growth inhibition rate is greater than 85%)	5 (Level 5: the growth inhibition rate is greater than 85%)	
CC(Oc1nc(F)c(Cl)c(N)c1Cl)C(=O)O.CCC(N)(CO)CO (stereo not shown) [Compound 2-22]				5 (Level 5: the growth inhibition rate is greater than 85%)	5 (Level 5: the growth inhibition rate is greater than 85%)	5 (Level 5: the growth inhibition rate is greater than 85%)	5 (Level 5: the growth inhibition rate is greater than 85%)	5 (Level 5: the growth inhibition rate is greater than 85%)	
Cc1ccccc1OC(=O)[C@@H](C)Oc1nc(F)c(Cl)c(N)c1Cl [Compound 2-355]				5 (Level 5: the growth inhibition rate is greater than 85%)	5 (Level 5: the growth inhibition rate is greater than 85%)	5 (Level 5: the growth inhibition rate is greater than 85%)	5 (Level 5: the growth inhibition rate is greater than 85%)	5 (Level 5: the growth inhibition rate is greater than 85%)	
C[C@@H](Oc1nc(F)c(Cl)c(N)c1Cl)C(=O)OCc1ccoc1 [Compound 2-349]				5 (Level 5: the growth inhibition rate is greater than 85%)	5 (Level 5: the growth inhibition rate is greater than 85%)	5 (Level 5: the growth inhibition rate is greater than 85%)	5 (Level 5: the growth inhibition rate is greater than 85%)	5 (Level 5: the growth inhibition rate is greater than 85%)	
CC(Oc1nc(F)c(Cl)c(N)c1Cl)C(=O)OCc1cccc(Br)c1 (stereo not shown) [Compound 2-322]				5 (Level 5: the growth inhibition rate is greater than 85%)	5 (Level 5: the growth inhibition rate is greater than 85%)	5 (Level 5: the growth inhibition rate is greater than 85%)	5 (Level 5: the growth inhibition rate is greater than 85%)	5 (Level 5: the growth inhibition rate is greater than 85%)	
CC(Oc1nc(F)c(Cl)c(N)c1Cl)C(=O)Sc1cccc(Cl)c1 (stereo not shown) [Compound 2-357]				5 (Level 5: the growth inhibition rate is greater than 85%)	5 (Level 5: the growth inhibition rate is greater than 85%)	5 (Level 5: the growth inhibition rate is greater than 85%)	5 (Level 5: the growth inhibition rate is greater than 85%)	5 (Level 5: the growth inhibition rate is greater than 85%)	
COC(=O)[C@@H](C)Oc1nc(F)c(Cl)c(NC(C)=O)c1Cl [Compound 2-377]				5 (Level 5: the growth inhibition rate is greater than 85%)	5 (Level 5: the growth inhibition rate is greater than 85%)	5 (Level 5: the growth inhibition rate is greater than 85%)	5 (Level 5: the growth inhibition rate is greater than 85%)	5 (Level 5: the growth inhibition rate is greater than 85%)	
